Tests used:
[1] = tested on: sulfate-reducing bacteria (SRBs); assay: SRB growth test (presence/absence) on unpainted wallboard paper before and after ClO2 fumigation of a house; assay type: cell-based; conditions: 20 wall and ceiling cavity locations, 12 of 20 positive before treatment; 13 hours, CT 5336-9727 ppmv-hours, about 45-52% RH
Experimental: SRBs—The efficacy of ClO2 gas in eliminating SRBs from Chinese wallboard material was evaluated by collecting samples of unpainted wallboard paper located inside wall cavities of the home prior to, and immediately after, ClO2 exposure. Unpainted wallboard paper from wall cavities was chosen for SRB testing because preliminary laboratory work done at Sabre's Slingerlands, N.Y. laboratory facility had shown SRBs to be concentrated in this media.
Pre-treatment wallboard paper samples were collected by drilling a two-inch circular core at selected wall and ceiling locations. To avoid damaging vapor barriers present within the home, samples were not collected from any bathroom or laundry room locations. Sample locations were selected to be representative wall cavities within the structure most likely to contain conditions conducive to SRB growth. In total, 20 sample locations were selected. Nine were wall cores and eleven were ceiling cores.
The wallboard holes created through SRB sampling were each sealed using a two-inch rubber expansion plug in order to ensure that ClO2 gas would not penetrate into wall cavities as a consequence of sampling activities.
Post-treatment wallboard paper samples were collected by drilling an identical two-inch circular core approximately one inch away from each of the 20 pre-treatment sample locations. […]

[2] = tested on: Bacillus atrophaeus spores; assay: BI spore strip viability test, strips inside wall cavities during ClO2 fumigation; assay type: cell-based; conditions: Bacillus atrophaeus spore strips in wall cavities; incubated seven days; both positive controls grew
From the text: BI Spore Strips—BI spore strips, each containing an approximate 2.5×103 titer of B. atrophaeus spores, were placed within wall cavities of the structure at the same 20 locations where wallboard samples had been collected, prior to insertion of the 2-inch expansion plugs. The B. atrophaeus species was selected due to its historical use as a biological indicator for ClO2 fumigations
Spore strips are thin cellulose pads that have been impregnated with a defined titer of bacterial spores. Each spore strip is encased in a Tyvek® pouch to allow for effective penetration of fumigant gas yet protect the strip from contamination by external sources. The BIs were obtained from SGM Biotech Inc., 10 Evergreen Drive, Suite E, Bozeman, Mont. (Lot #ACD-113e). All BIs were supplied from the same product batch in order to ensure uniformity in spore titer. Relevant production QA/QC data for the specific lot number have been kept on file for future reference.
All BIs were retrieved promptly following fumigation and sent to Sabre's Slingerlands, N.Y. laboratory facility for analysis. Each spore strip was aseptically placed in a growth media tube containing 15 milliliters of trypticase soy broth (BD Diagnostics product #221823, Lot # 7337460) and incubated at 37 degrees Centigrade. Spore strips were evaluated daily for the presence or absence of indicator organism growth for a total of seven days. […]

[3] = Olfactory observation of reduced-sulfur odors before and after treatment; conditions: Sabre personnel and independent observers; faint swimming pool like scent remained
From the text: Subjective Odor Elimination—Reduced-sulfur compounds odors are extremely noxious and can be detected by the human olfactory (i.e. odor) sense at levels which are at or below the detection limits of sophisticated analytical instruments. As such, the olfactory senses of both Sabre personnel and independent observers were employed both pre- and post-treatment to gauge the effectiveness of ClO2 in ridding the test structure of reduced-sulfur compound odors.
Odor levels emanating from within the structure were observed both pre- and post-treatment for the “putrid” characteristic commonly associated with reduced-sulfur gases such as hydrogen sulfide, carbonyl sulfide and carbon disulfide that have been definitively shown by an FDOH study as being released from Chinese wallboard.

SRBs and sulfur bacteria = assay: Chlorine dioxide fumigation of Chinese wallboard, SRB kill; assay type: cell-based; conditions: 65% RH and 65° F., enclosed structure
Experimental: Two square ([…]) samples of ⅝ inch Chinese wall board are collected from the structure that reported odor issues from different areas of the structure. […] The samples are split into four 25 cm×25 cm squares with the exposed ends of the sheetrock taped and painted with the same paint used within the structure. Two squares from each sample are placed into a chlorine dioxide fumigation chamber and fumigated with chlorine dioxide to a CT value of 9000 ppmv hours at 65% RH and 65° F. The other two squares from each sample are held in sealed bags as test blanks.
Upon completion of the test, each of the samples can be sampled as follows: Each core sample is homogenized in 10 ml of an anaerobic SRB broth, and 1 ml of the broth is transferred to 10 ml of broth in an anaerobic container and diluted serially out to a 104th dilution. The broth bottles are incubated at 25° C. for 21 days. Each day growth is recorded, and a lab blank negative control is performed on the initial broth.

[4] = after fumigation, visual
Experimental: The corrosivity potential of ClO2 on metals and bleaching potential of ClO2 on household carpeting were evaluated through pre- and post treatment visual observations made throughout the structure.
Corrosivity potential was assessed by observation of typical metal items present within the structure (e.g. screws, door hinges, HVAC system components, etc.). […] Each piece of copper was “scuffed” clean prior to fumigation to ensure that any changes in the metal due to ClO2 exposure would be readily recognizable. Photographs were taken of the copper pipe pieces before and after treatment to document visual observations made.

[5] = after fumigation, side-by-side with untreated carpet
Experimental: Bleaching potential of ClO2 was assessed by observation of carpet color and brightness throughout the structure both pre- and post-treatment. A piece of carpeting was also removed from a closet within the structure prior to fumigation and used for direct visual comparison with treated carpet following completion of the process.

**Q.** What does the source list for `[O][Cl+][O-]` [ClO2, chlorine dioxide]?
**A.** SRB growth after ClO2 treatment [1]: negative for SRB growth; Surrogate test organism growth on BI spore strips after ClO2 treatment [2]: negative for surrogate test organism growth; Reduced-sulfur gas odors after fumigation [3]: completely eliminated; CT of fumigation that eliminates growth of SRBs and sulfur bacteria and oxidizes reactive sulfides (SRBs and sulfur bacteria): about 9000 ppmv hours; Corrosive effect on common metal items in the structure [4]: no corrosive effect was visible; Changes in scuffed copper pipe pieces ([4]; some pieces had a gold-like tint): no changes were observed; Bleaching effect on carpet color and brightness [5]: no meaningful bleaching effect

— patent US20100278687A1, “R[…] GYPSUM BOARD USING GASEOUS CHLORINE DIOXIDE” (SABRE INTELLECTUAL PROPERTY HOLDINGS COMPANY, LLC., priority 2009, published 2010)
